Laboratory results taken from article PMC12069340 (Frontiers in Cellular and Infection Microbiology, 2025).
pIC50: −log10 of the molar value. Where a name gives a salt, the structure may show the parent alone.

tested on: A/PuertoRico/8/1934 (H1N1 H274Y); type: cell-based, influenza A virus

| SMILES | pIC50 |
| --- | --- |
| CC(COc1ccccc1)NC(C)C(O)c1ccc(O)cc1 (stereo not drawn) [Isoxsuprine, Isoxsuprine hydrochloride] | 5.03 |
| O=C(c1ccc(OCCCc2cnc[nH]2)cc1)C1CC1 [Ciproxifan] | 5.23 |
| CCCN(CCc1cccs1)[C@H]1CCc2c(O)cccc2C1 [Rotigotine] | 5.07 |
